In ChEMBL document CHEMBL1201862, “PubChem BioAssay data set” (2004):
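Dose response: 5 concentrations. Exposure: 48 h. Format: 96-well plates. Endpoint: linear interpolation; highest concentration if not reached. Here, GI50 denotes the concentration required for 50% inhibition of growth.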 Activity calls are given as the source filed them. Rule as the data show it: active = GI50 up to about 1.1 µM and inactive = higher.

What was measured:
Assay in all cases: inhibition of tumour cell growth, NCI panel, 48 h
HOP-62 = system: HOP-62
U-251 = system: U-251
SF-295 = system: SF-295
NCI-H522 = system: NCI-H522
A498 = system: A498
LOX IMVI = system: LOX IMVI
UO-31 = system: UO-31
DMS-114 = system: DMS-114
KM12 = system: KM12
SNB-75 = system: SNB-75
SF-539 = system: SF-539
SNB-19 = system: SNB-19
OVCAR-3 = system: OVCAR-3
Malme-3M = system: Malme-3M
HCT-15 = system: HCT-15
OVCAR-4 = system: OVCAR-4
M19-MEL = system: M19-MEL
K562 = system: K562

| Structure (SMILES) | GI50 (HOP-62) | GI50 (U-251) | GI50 (SF-295) | GI50 (NCI-H522) | GI50 (A498) | GI50 (LOX IMVI) | GI50 (UO-31) | GI50 (DMS-114) | GI50 (KM12) | GI50 (SNB-75) | GI50 (SF-539) | GI50 (SNB-19) | GI50 (OVCAR-3) | GI50 (Malme-3M) | GI50 (HCT-15) | GI50 (OVCAR-4) | GI50 (M19-MEL) | GI50 (K562) |
| --- | --- | --- | --- | --- | --- | --- | --- | --- | --- | --- | --- | --- | --- | --- | --- | --- | --- | --- |
| CCCCCCCCCCCCCS(=O)(=O)NCC(N)=O | > 100 µM (inactive) | > 100 µM (inactive) | > 100 µM (inactive) | > 100 µM (inactive) | > 100 µM (inactive) | > 100 µM (inactive) | > 100 µM (inactive) | > 100 µM (inactive) | > 100 µM (inactive) | 25.6 µM (inactive) | > 100 µM (inactive) | > 100 µM (inactive) | > 100 µM (inactive) | > 100 µM (inactive) | > 100 µM | > 100 µM (inactive) | > 100 µM (inactive) |  |
| CCCC(C(=O)OC)C1N/C(=N/C#N)N(Cc2ccccc2)C1=O (configuration not stated) | > 100 µM (inactive) | > 100 µM (inactive) | > 100 µM (inactive) | > 100 µM (inactive) |  | > 100 µM (inactive) | 67.1 µM (inactive) | > 100 µM (inactive) | > 100 µM (inactive) | 22.9 µM (inactive) |  | > 100 µM (inactive) | > 100 µM (inactive) | > 100 µM (inactive) | > 100 µM | > 100 µM (inactive) | > 100 µM (inactive) | 66.4 µM (inactive) |
| COc1ccccc1N1C(=O)C2c3[nH]c4ccccc4c3C3CCC(C(C)(C)C)CC3C2C1=O (configuration not stated) | > 100 µM (inactive) | > 100 µM (inactive) | > 100 µM (inactive) | > 100 µM (inactive) | > 100 µM (inactive) |  | > 100 µM (inactive) | > 100 µM (inactive) |  | > 100 µM (inactive) | > 100 µM (inactive) | > 100 µM (inactive) |  | > 100 µM (inactive) | > 100 µM | > 100 µM (inactive) | > 100 µM (inactive) | > 100 µM (inactive) |
| Oc1cc(O)c(Oc2cccc(O)c2O)c(O)c1 | > 100 µM (inactive) | > 100 µM (inactive) | > 100 µM (inactive) | 49.7 µM (inactive) | > 100 µM (inactive) |  | > 100 µM (inactive) | 57.7 µM (inactive) | > 100 µM (inactive) | 45.8 µM (inactive) | > 100 µM (inactive) | > 100 µM (inactive) | 73.3 µM (inactive) | > 100 µM (inactive) | > 100 µM | 15.5 µM (inactive) | 21.1 µM (inactive) | 35 µM (inactive) |
| O=C1NC(=O)/C(=N\c2cccc3c(=O)[nH][nH]c(=O)c23)C(c2nc3ccccc3s2)C1=O (configuration not stated) | > 100 µM (inactive) | > 100 µM (inactive) | > 100 µM (inactive) | > 100 µM (inactive) | > 100 µM (inactive) |  | > 100 µM (inactive) | > 100 µM (inactive) | > 100 µM (inactive) | > 100 µM (inactive) |  | > 100 µM (inactive) | > 100 µM (inactive) | > 100 µM (inactive) | > 100 µM | > 100 µM (inactive) | > 100 µM (inactive) |  |
| Cc1c2ccncc2c(C)c2c1[nH]c1ccc(OCC(F)(F)F)cc12 | 1.63 µM (inactive) | 1.6 µM (inactive) | 1.63 µM (inactive) | 1.65 µM (inactive) |  | 1.61 µM (inactive) | 1.73 µM (inactive) | 1.84 µM (inactive) | 1.36 µM (inactive) | 2.17 µM (inactive) | 1.75 µM (inactive) | 1.64 µM (inactive) | 1.85 µM (inactive) | 1.73 µM (inactive) | 1.05 µM | 2.03 µM (inactive) | 1.84 µM (inactive) | 1.08 µM (active) |
